From PubChem BioAssay AID1996
Values after ≈ are worked out from the molar mass of the structure shown.

settings: buffer; pH 7.4; 200.0 µM

Compound | solubility kinetic
Cc1ccc(N2C(=O)C3CCCN3C2=S)cc1C (stereo not drawn) | > 39.1 µg/mL
COC(=O)c1sc(SC)c(-c2ccon2)c1C | < 0.6 µg/mL
O=C(O)C1CCCCC1C(=O)Nc1ccc(OCc2ccccc2)cc1 (stereo not drawn) | 44.2 µg/mL (≈ 125 µM)
CN(C)C(=O)CN1c2cccc3cccc(c23)S1(=O)=O | > 43.6 µg/mL
Nc1ccc(-c2nc3cc([N+](=O)[O-])ccc3o2)cc1 | 1.1 µg/mL (≈ 4.31 µM)
COc1ccc(CCC(C)NCc2ccc(Cl)c(Cl)c2)cc1 (stereo not drawn) | 17.3 µg/mL (≈ 51.1 µM)
CC(=O)Nc1ccc(NC(=O)C(C)OC(=O)C2CCCC2)cc1 (stereo not drawn) | > 47.8 µg/mL
c1ccc2[nH]c(SN3CCOCC3)nc2c1 | 10.8 µg/mL (≈ 45.9 µM)
Cc1cc(OCCn2ccnc2)cc(C)c1Cl | 30.8 µg/mL (≈ 123 µM)
CC(=O)c1ccc(NC(=O)N2CCc3ccccc3C2)cc1 | 34.3 µg/mL (≈ 117 µM)
CCOC(=O)CNc1nc(Cl)nc(N2CCCCC2)n1 | 12.3 µg/mL (≈ 41 µM)
CCC(CO)(C(=O)OC1CC2CCC(C1)N2C)c1ccccc1.Cl (stereo not drawn) | > 53.1 µg/mL
CC1CCN(C2=NC(=O)/C(=C/c3ccc(O)cc3)S2)CC1 | 3.8 µg/mL (≈ 12.6 µM)
COc1ccc(CN2CCN(C(=O)CC(C)C)CC2)cc1 | 36.8 µg/mL (≈ 127 µM)
Cc1ccc(OC(=O)CCC(=O)Nc2ccc(C(N)=O)cc2)cc1 | > 49 µg/mL
O=C(O)CCN1C(=O)C2C3c4ccccc4C(c4ccccc43)[C@@H]2C1=O (stereo partly drawn) | 46.8 µg/mL (≈ 135 µM)
Cc1cccc(NS(=O)(=O)c2csc(C(N)=O)c2)c1 | > 44.5 µg/mL
COc1ccc(C2c3c(noc3C)CC(C)(O)C2C(C)=O)cc1 (stereo not drawn) | > 47.3 µg/mL
CNc1nc(Cl)c(SC)c(NCc2ccc(F)cc2)n1 | 0.6 µg/mL (≈ 1.92 µM)
Cc1ccc(N2CCN(C(=O)c3cccs3)CC2)c(C)c1 | 2.3 µg/mL (≈ 7.66 µM)
CCOC(=O)C1=C(C)Nc2nc3ccccc3n2C1c1ccc(O)cc1 (stereo not drawn) | < 0.2 µg/mL
COc1cccc(CC2(CO)CCN(Cc3cn(C)nc3C)CC2)c1 | > 51.5 µg/mL

Compound | solubility kinetic
Oc1cccnc1Sc1cccc(C(F)(F)F)c1 | 38.2 µg/mL (≈ 141 µM)
Cc1ccc(NC(=O)CCN2CCC(C)CC2)cc1.Cl | > 44.5 µg/mL
O=c1nc(SCc2cccc(C(F)(F)F)c2)nc2ccccn12 | 7 µg/mL (≈ 20.8 µM)
COc1ccc(N2CCN(CC(=O)NC(C)c3ccccc3)CC2)cc1 (stereo not drawn) | 45.1 µg/mL (≈ 128 µM)
CN(CC(=O)Nc1ccc(S(N)(=O)=O)cc1)C1CCCCC1 | > 48.8 µg/mL
Cc1ccccc1-c1nc(C#N)c(N2CCCCC2)o1 | 1.8 µg/mL (≈ 6.73 µM)
Cc1ccc(-c2csc(NC(=O)C3CC(=O)N(Cc4ccco4)C3)n2)cc1 (stereo not drawn) | 12.1 µg/mL (≈ 31.7 µM)
Cc1cc(-c2cccc(Br)c2)c(C#N)c(N)n1 | 3.1 µg/mL (≈ 10.8 µM)
Clc1ccc(-c2cn3ccccc3n2)cc1 | 2.5 µg/mL (≈ 10.9 µM)
COc1cc(Cl)c(C)cc1NC(=O)CSc1nnc(CN2CCCC2)o1 | > 59.5 µg/mL
Cc1cc(C(=O)CN2C(=O)NC3(CCC(C)CC3)C2=O)c(C)n1C (stereo not drawn) | 13.3 µg/mL (≈ 40.1 µM)
O=c1c(Cc2ccc(F)cc2)c(O)ccn1CC1CCCO1 (stereo not drawn) | > 45.5 µg/mL
COc1cccc(N2CCC(N3CCN(C)C(CCO)C3)CC2)c1 (stereo not drawn) | 48.4 µg/mL (≈ 145 µM)
O=C(Cn1c(CO)nc2ccccc21)Nc1ccc2c(c1)OCCCO2 | > 53 µg/mL
Cc1ccc(-c2c[nH]c(=S)n2-c2ccccc2F)cc1 | 11.2 µg/mL (≈ 39.4 µM)
O=C1NC(=Nc2ccc(F)cc2)CS1 | > 31.5 µg/mL
Cn1cc(S(=O)(=O)Oc2ccccc2)c(=O)n(C)c1=O | 39.5 µg/mL (≈ 133 µM)
CC12CCC(=O)N1C(C(=O)Nc1cccc(F)c1)CS2 (stereo not drawn) | > 44.2 µg/mL
N#Cc1c2n(c3c(N)ncnc13)CCCCC2 | 33.6 µg/mL (≈ 148 µM)
FC(F)(F)c1ccccc1CCN1CCNCC1 | 32.9 µg/mL (≈ 127 µM)
CC1CCC/C(=C\Nc2ccc(C(=O)O)c(O)c2)C1=O (stereo not drawn) | 39.4 µg/mL (≈ 143 µM)
CC(C)OC(=O)CC1C(=O)NCCN1C(=O)COc1ccc(C(C)(C)C)cc1 (stereo not drawn) | 49.4 µg/mL (≈ 127 µM)

Compound | solubility kinetic
Cc1ccc2[nH]c3c(Cl)ncnc3c2c1 | 13.3 µg/mL (≈ 61.1 µM)
Cn1c(C(=O)O)cc2cc(Oc3ccccc3)ccc21 | 36 µg/mL (≈ 135 µM)
Brc1ccccc1OCCCOc1cccc2cccnc12 | 1.5 µg/mL (≈ 4.19 µM)
Cc1cc(S(=O)(=O)NCCCN2CCOCC2)c(Cl)cc1Cl | 42.6 µg/mL (≈ 116 µM)
CN(C)c1cc(-c2ccc(Br)cc2)oc(=O)c1Cl | 1.1 µg/mL (≈ 3.35 µM)
Cc1cc(SCC(=O)NC2CCCCC2)nc2ccccc12 | 1.2 µg/mL (≈ 3.82 µM)
Nc1cccc(-c2nc3ncccc3o2)c1 | > 31.7 µg/mL
Cc1ccccc1C1NC(c2ccccc2C)C(C)C(=O)C1C (stereo not drawn) | 7.7 µg/mL (≈ 25 µM)
O=C(CSc1nc2ccccc2c(=O)n1CCCN1CCOCC1)NCCc1ccccc1 | 64.3 µg/mL (≈ 138 µM)
CC(=O)c1ccc(NC(=O)Nc2ccc3c(c2)nc(C)n3C)cc1 | 4.1 µg/mL (≈ 12.7 µM)
N#C/C(=C\Nc1ccc(F)c(Cl)c1)C(=O)C1CC1 | 1.7 µg/mL (≈ 6.42 µM)
c1ccc2c(c1)NCC1CCCN21 (stereo not drawn) | 12.7 µg/mL (≈ 72.9 µM)
O=C(c1ccccc1)N1CCN(S(=O)(=O)N2CCOCC2)CC1 | 46 µg/mL (≈ 136 µM)
O=C(Nc1cccc(S(=O)(=O)NCc2ccco2)c1)c1cccc(Cl)c1 | 2.5 µg/mL (≈ 6.4 µM)
CCC(CC)C(=O)Nc1ccc(S(=O)(=O)Nc2nccs2)cc1 | > 53 µg/mL
COc1ccc(NS(=O)(=O)c2cc(NC(=O)c3ccc(S(=O)(=O)N(C)C)cc3)ccc2N2CCOCC2)cc1 | 3.2 µg/mL (≈ 5.57 µM)
NC(=O)CN1C(=O)NC2(CCCc3ccccc32)C1=O (stereo not drawn) | > 41 µg/mL
CCOc1ccc(NC(=O)CN2C(=O)NC3(CCCCCC3)C2=O)cc1 | > 53.9 µg/mL
CS(=O)(=O)c1ccc(Cl)c(NC(=O)CCN2C(=O)NC3(CCCC3)C2=O)c1 | > 62.1 µg/mL
O=C(Nc1ccc(Oc2cccnc2)nc1)c1ccc(C(F)(F)F)cc1 | 10.3 µg/mL (≈ 28.7 µM)
Cc1ccc(OCCn2c(=O)oc3ccc(C)cc32)cc1 | < 0.6 µg/mL

Second part, the compound after the results:

solubility kinetic | Compound
< 0.6 µg/mL | Cc1ccc(NC(=O)c2cccc3ccccc23)cc1
> 45.1 µg/mL | Cc1ccc(NC(=O)CCSCCc2ccccn2)cc1
2.6 µg/mL (≈ 6.76 µM) | O=C(c1ccccc1)c1ccccc1NC(=O)C1CCCN1Cc1ccccc1 (stereo not drawn)
12.2 µg/mL (≈ 51 µM) | O=C(Nc1cccc2ccccc12)C1CCCC1
0.9 µg/mL (≈ 3.1 µM) | N#Cc1ccc(C(=O)Nc2cccc3ccccc23)c(F)c1
2.8 µg/mL (≈ 9.58 µM) | Cc1cc(C(=O)Nc2ccccc2Cc2ccccc2)no1
> 46.7 µg/mL | O=C(Nc1nnc(-c2cccnc2)o1)c1cccc([N+](=O)[O-])c1
> 37.5 µg/mL | Cc1ccc([N+](=O)[O-])cc1NC(=O)/C=C/C(=O)O
27.4 µg/mL (≈ 114 µM) | Cc1ccc(C(=O)NCCc2ccccc2)cc1
1.6 µg/mL (≈ 5.33 µM) | O=C(OCc1ccccc1F)c1cnc(Cl)c(Cl)c1
> 37.5 µg/mL | Cc1csc(NC(=O)Cc2ccc(F)cc2)n1
20.9 µg/mL (≈ 74.6 µM) | O=C(NCc1ccccc1F)c1ccc2ccccc2n1
14.9 µg/mL (≈ 45.7 µM) | COc1ccc(OC)c(NC(=O)CN2CCc3ccccc3C2)c1
> 37.1 µg/mL | COc1ccccc1NC(=O)Cc1ccsc1
41.4 µg/mL | COc1cc(CNCc2ccco2)cc(OC)c1O.Cl
> 34.7 µg/mL | OCCN(CCO)c1ccc2ccccc2c1
> 37.8 µg/mL | COC(=O)CCC(=O)Nc1cccc([N+](=O)[O-])c1
37.2 µg/mL (≈ 117 µM) | O=C(/C=C/c1cccc(Br)c1)NCc1ccncc1
4 µg/mL (≈ 14 µM) | O=C(COc1ccccc1F)Nc1ccc2c(c1)CCC2
21.3 µg/mL (≈ 125 µM) | Cc1[nH]c2ccccc2c1CC#N

solubility kinetic | Compound
0.6 µg/mL (≈ 1.66 µM) | Cc1cc(C)cc(NC(=O)Nc2cc(S(=O)(=O)N(C)C)ccc2C)c1
2.5 µg/mL (≈ 9.42 µM) | Cc1coc(C)c1C(=O)Nc1ccc2ccccc2c1
> 57.1 µg/mL | COc1ccc(Cl)cc1NS(=O)(=O)c1cccc(C(=O)NC2CC2)c1
30 µg/mL (≈ 146 µM) | CCCC(C)NC(=O)Cc1ccccc1 (stereo not drawn)
< 0.6 µg/mL | O=C(Nc1ccccc1)c1cc2ccc3ccccc3c2s1
> 38.4 µg/mL | COc1ccc2ccccc2c1-c1csc(N)n1
19.4 µg/mL (≈ 66.5 µM) | O=C(Cc1ccc(Cl)cc1)NCCc1ccc(F)cc1
> 48.9 µg/mL | O=C(CCN1C(=O)c2ccccc2C1=O)NCc1ccc(F)cc1
> 38.3 µg/mL | COCCNC(=S)Nc1ccccc1[N+](=O)[O-]
> 48.4 µg/mL | CCN(CC)CCN1CNC(=S)N(c2ccccc2OC)C1
> 41.4 µg/mL | COc1ccc(CNC(=O)Cn2cncn2)cc1OC
5 µg/mL (≈ 14.6 µM) | CC(C)(C)NC(=O)c1ccc(COc2ccc(Cl)cc2Cl)o1
> 38.4 µg/mL | CCOC(=O)c1ccc(NCc2cccnc2)cc1
> 36.2 µg/mL | O=C(Nc1ccc2c(c1)OCO2)c1ccccc1
> 21.5 µg/mL | Cl.NCc1ccccc1
> 32.6 µg/mL | Cc1ccc(NC(=O)Nc2ccno2)cc1
> 35.4 µg/mL | COc1ccc(CN2C(=O)CNC2=S)cc1
47.3 µg/mL (≈ 135 µM) | CC(C)NC(=O)c1ccc(CN2CCC(Cc3ccccc3)CC2)cc1
10.8 µg/mL (≈ 34.7 µM) | O=C(c1ccccc1)C1CCN(c2ncccc2[N+](=O)[O-])CC1
34.3 µg/mL (≈ 107 µM) | COc1ccc(Cl)cc1C(=O)NCc1ccc2c(c1)OCO2

solubility kinetic | Compound
5.7 µg/mL (≈ 21.4 µM) | COc1ccc(Cl)cc1NC(=O)c1cc(C)no1
0.7 µg/mL (≈ 2.2 µM) | COc1ccc(NC(=O)Nc2ccccc2SC)c(OC)c1
1.9 µg/mL (≈ 6.8 µM) | Cc1cccc(NC(=O)c2cc(=O)c3ccccc3o2)c1
27 µg/mL (≈ 104 µM) | O=C(/C=C/c1ccccc1Cl)Nc1cccnc1
> 50.8 µg/mL | O=C(NCCCN1CCOCC1)C(c1ccccc1)c1ccccc1
> 44.4 µg/mL | O=C(NCc1ccccn1)Nc1cccc(Cl)c1Cl
19.3 µg/mL (≈ 46.8 µM) | CCCC(=O)OCCNc1cc(SCCC(=O)OC)c2nonc2c1[N+](=O)[O-]
> 36.5 µg/mL | COc1ccc(OC)c(C(=O)c2ccccn2)c1
4.1 µg/mL (≈ 12 µM) | CCCCNc1nc2c(c(=O)n(Cc3ccccc3)c(=O)n2C)n1C
36.7 µg/mL (≈ 99.9 µM) | COc1ccccc1C(=O)C1CCCN(Cc2ccc3c(c2)OCCO3)C1 (stereo not drawn)
0.6 µg/mL (≈ 1.79 µM) | Cc1cccc(C(C)C)c1NC(=O)c1c(-c2ccccc2)noc1C
20.2 µg/mL (≈ 77 µM) | O=C(NCC1CCCCC1)c1cccc([N+](=O)[O-])c1
6.1 µg/mL (≈ 19.9 µM) | CCOc1ccc(C(=O)Nc2ccccc2OC(F)F)cc1
4.4 µg/mL (≈ 11.3 µM) | COc1ccc(S(=O)(=O)NCc2c(-c3ccccc3)noc2C)c(OC)c1
> 47.8 µg/mL | CCCCNC(=O)c1ccccc1SCc1c(C)noc1C
37.6 µg/mL (≈ 148 µM) | CC(=O)Nc1ccc(S(=O)(=O)NC2CC2)cc1
> 49.9 µg/mL | CCc1ccc(C(=O)NC(C(=O)NCC2CCCO2)C(C)C)cc1 (stereo not drawn)
< 0.3 µg/mL | COc1ccc2oc(=N)c(C(=O)Nc3cccc(C)c3C)cc2c1
